From ChEMBL document CHEMBL5370670, “Anti-MRSA Dimeric and Brominated Phenyltetracenoids Produced by Streptomyces morookaense SC1169” (J Nat Prod, 2023)
≈ marks a conversion by molar mass, not a printed value. Where a name gives a salt, the structure may show the parent alone.

What was measured:
Enterococcus faecium [1] = test: Antibacterial activity against vancomycin-resistant Enterococcus faecium incubated for 6 to 8 hrs by microplate Alamar Blue assay; assay type: functional; conditions: time 6-8 hrs
Enterococcus faecium [2] = test: Antibacterial activity against Enterococcus faecium incubated for 6 to 8 hrs by microplate Alamar Blue assay; assay type: functional; conditions: time 6-8 hrs
Staphylococcus aureus [3] = test: Antibacterial activity against methicillin-resistant Staphylococcus aureus incubated for 6 to 8 hrs by microplate Alamar Blue assay; assay type: functional; conditions: time 6-8 hrs
Staphylococcus aureus [4] = test: Antibacterial activity against Staphylococcus aureus ATCC 6538 incubated for 6 to 8 hrs by microplate Alamar Blue assay; assay type: functional; conditions: time 6-8 hrs
HepG2 = test: Cytotoxicity against human HepG2 cells assessed as cell growth inhibition incubated for 48 hrs by MTT assay; assay type: functional, cell-based; conditions: HepG2, 48 h
MCF7 = test: Cytotoxicity against human MCF7 cells assessed as cell growth inhibition incubated for 48 hrs by MTT assay; assay type: functional, cell-based; conditions: MCF7, 48 h
HeLa = test: Cytotoxicity against human HeLa cells assessed as cell growth inhibition incubated for 48 hrs by MTT assay; assay type: functional, cell-based
A549 = test: Cytotoxicity against human A549 cells assessed as cell growth inhibition incubated for 48 hrs by MTT assay; assay type: functional, cell-based; conditions: A549, 48 h
[5] = Cytotoxicity against African green monkey Vero cells assessed as cell growth inhibition incubated for 48 hrs by MTT assay; assay type: toxicity, cell-based; conditions: African green monkey (Chlorocebus sabaeus)
[6] = Selectivity index, ratio of IC50 for cytotoxicity against African green monkey Vero cells to IC50 for cytotoxicity against human A549 cells; assay type: toxicity, cell-based; conditions: Vero cells and A549 cells, read-out: Ratio IC50

Row | Compound | MIC (Enterococcus faecium [1]) | MIC (Enterococcus faecium [2]) | MIC (Staphylococcus aureus [3]) | MIC (Staphylococcus aureus [4]) | IC50 (HepG2) | IC50 (MCF7) | IC50 (HeLa) | IC50 (A549) | IC50 at 48 h [5] | selectivity ratio [6]
1 | COc1cc(C)c(-c2cc(OC)cc3cc4c(c(O)c23)C(=O)c2c(O)cc(O)cc2C4(C)C)c(O)c1 | 1.3 µg/mL (≈ 2.67 µM) | 1.3 µg/mL (≈ 2.67 µM) | 1.3 µg/mL (≈ 2.67 µM) | 1.3 µg/mL (≈ 2.67 µM) | – | – | – | – | – | –
2 | COc1cc(C)c(-c2cc(O)c(Cl)c3cc4c(c(O)c23)C(=O)c2c(cc(OC)c(Cl)c2O)C4(C)C)c(O)c1 | 2.5 µg/mL (≈ 4.5 µM) | 2.5 µg/mL (≈ 4.5 µM) | 2.5 µg/mL (≈ 4.5 µM) | 2.5 µg/mL (≈ 4.5 µM) | – | – | – | – | – | –
3 | COc1cc(C)c(-c2cc(O)cc3cc4c(c(O)c23)C(=O)c2c(cc(OC)c(Cl)c2O)C4(C)C)c(O)c1 | 2.5 µg/mL (≈ 4.8 µM) | 2.5 µg/mL (≈ 4.8 µM) | 2.5 µg/mL (≈ 4.8 µM) | 2.5 µg/mL (≈ 4.8 µM) | – | – | – | – | – | –
4 | COc1cc(C)c(-c2cc(OC)cc3cc4c(c(O)c23)C(=O)c2c(O)cc(OC)cc2C4(C)C)c(O)c1 | – | > 10 µg/mL | > 10 µg/mL | > 10 µg/mL | 2.7 µM | 6.2 µM | 6.7 µM | 4.6 µM | 7.6 µM | –
5 | COc1cc(C)c(-c2cc(O)cc3cc4c(c(O)c23)C(=O)c2c(O)cc(OC)cc2C4(C)C)c(O)c1 | 2.5 µg/mL (≈ 5.14 µM) | 1.3 µg/mL (≈ 2.67 µM) | 2.5 µg/mL (≈ 5.14 µM) | 2.5 µg/mL (≈ 5.14 µM) | 7 µM | 16.5 µM | 6.5 µM | 5.3 µM | 6.7 µM | –
6 | COc1cc(C)c(-c2cc(O)cc3cc4c(c(O)c23)C(=O)c2c(cc(OC)c(Br)c2O)C4(C)C)c(O)c1 | 1.3 µg/mL (≈ 2.3 µM) | 1.3 µg/mL (≈ 2.3 µM) | 0.6 µg/mL (≈ 1.06 µM) | 0.6 µg/mL (≈ 1.06 µM) | 3.5 µM | 3.1 µM | 4.1 µM | 2.5 µM | 2.8 µM | –
7 | COc1cc(C)c(-c2cc(O)cc3cc4c(c(O)c23)C(=O)c2c(cc(OC)c(Br)c2OC)C4(C)C)c(O)c1 | 5 µg/mL (≈ 8.63 µM) | 5 µg/mL (≈ 8.63 µM) | 5 µg/mL (≈ 8.63 µM) | 5 µg/mL (≈ 8.63 µM) | 5.7 µM | 8.6 µM | 5.1 µM | 4.7 µM | 5.8 µM | –
8 | COc1cc(-c2c(O)cc(OC)c(Cc3c(OC)cc(C)c(-c4cc(OC)cc5cc6c(c(O)c45)C(=O)c4c(O)cc(O)cc4C6(C)C)c3O)c2C)c2c(O)c3c(cc2c1)C(C)(C)c1cc(O)cc(O)c1C3=O | – | > 10 µg/mL | > 10 µg/mL | > 10 µg/mL | > 50 µM | > 50 µM | > 50 µM | > 50 µM | > 50 µM | –
9 | COc1cc(C)c(-c2cc(OC)cc3cc4c(c(O)c23)C(=O)c2c(OC)cc(OC)cc2C4(C)C)c(O)c1 | – | > 10 µg/mL | > 10 µg/mL | > 10 µg/mL | 5.8 µM | 9.2 µM | 7.7 µM | 6 µM | 9 µM | –
10 | COC1=CC(=O)C(c2cc(OC)cc3cc4c(c(O)c23)C(=O)c2c(O)cc(O)cc2C4(C)C)=C(C)C1=O | – | > 10 µg/mL | > 10 µg/mL | > 10 µg/mL | 12.4 µM | 9.6 µM | 14.6 µM | 8.9 µM | 15.1 µM | –
11 | COc1cc(-c2c(O)cc(OC)c(Cc3c(OC)cc(O)c(-c4cc(OC)cc5cc6c(c(O)c45)C(=O)c4c(O)cc(O)cc4C6(C)C)c3C)c2C)c2c(O)c3c(cc2c1)C(C)(C)c1cc(O)cc(O)c1C3=O | – | > 10 µg/mL | 2.5 µg/mL (≈ 2.54 µM) | 2.5 µg/mL (≈ 2.54 µM) | 16.7 µM | 17.2 µM | 15.8 µM | 5.7 µM | 17.6 µM | 3
12 | COc1cc(C)c(-c2cc(OC)cc3cc4c(c(O)c23)C(=O)c2c(cc(O)c(Br)c2O)C4(C)C)c(O)c1 | 2.5 µg/mL (≈ 4.42 µM) | 1.3 µg/mL (≈ 2.3 µM) | 1.3 µg/mL (≈ 2.3 µM) | 1.3 µg/mL (≈ 2.3 µM) | 5.2 µM | 8.9 µM | 3.6 µM | 3.3 µM | 9 µM | –
13 | COc1cc(C)c(-c2cc(O)c(Br)c3cc4c(c(O)c23)C(=O)c2c(cc(OC)c(Br)c2O)C4(C)C)c(O)c1 | 2.5 µg/mL (≈ 3.88 µM) | 2.5 µg/mL (≈ 3.88 µM) | 1.3 µg/mL (≈ 2.02 µM) | 1.3 µg/mL (≈ 2.02 µM) | 5.9 µM | 4.6 µM | 1.7 µM | 2.8 µM | 15.1 µM | –
14 | COc1cc(C)c(C(=O)c2c(CC(C)=O)cc3c(c2O)C(=O)c2c(cc(OC)c(Br)c2OC)C3(C)C)c(OC)c1 | – | > 10 µg/mL | > 10 µg/mL | > 10 µg/mL | 13.6 µM | 12.3 µM | 12.6 µM | 10.2 µM | > 50 µM | –
15 | COc1cc(-c2c(O)cc(OC)c(OC)c2C)c2c(O)c3c(cc2c1)C(C)(C)c1cc(O)cc(O)c1C3=O | 5 µg/mL (≈ 9.68 µM) | 5 µg/mL (≈ 9.68 µM) | 5 µg/mL (≈ 9.68 µM) | 5 µg/mL (≈ 9.68 µM) | 4.8 µM | 12.3 µM | 11.1 µM | 6.3 µM | 4.5 µM | –
16 | COc1cc(C)c(-c2cc(OC)cc3cc4c(c(O)c23)C(=O)c2c(cc(OC)c(Br)c2O)C4(C)C)c(O)c1 | – | > 10 µg/mL | > 10 µg/mL | > 10 µg/mL | 4.7 µM | 7.9 µM | 1.7 µM | 3.3 µM | 7.3 µM | –
17 | COc1cc(C)c(-c2cc(OC)c(Br)c3cc4c(c(O)c23)C(=O)c2c(O)cc(O)cc2C4(C)C)c(O)c1 | 1.3 µg/mL (≈ 2.3 µM) | 1.3 µg/mL (≈ 2.3 µM) | 1.3 µg/mL (≈ 2.3 µM) | 1.3 µg/mL (≈ 2.3 µM) | 4.5 µM | 5.3 µM | 5.8 µM | 3.1 µM | 5.7 µM | –
18 | COc1cccc2c1C(=O)c1c(O)c3c(c(O)c1C2=O)C[C@@](O)(C(=O)CO)C[C@@H]3O[C@H]1C[C@H](N)[C@H](O)[C@H](C)O1 [DOXORUBICIN HYDROCHLORIDE] | – | – | – | – | 0.8 µM | – | – | 0.7 µM | – | –
19 | NC[C@H]1O[C@H](O[C@H]2[C@H](O)[C@@H](O[C@H]3O[C@H](CO)[C@@H](O)[C@H](N)[C@H]3O)[C@H](N)C[C@@H]2N)[C@H](O)[C@@H](O)[C@@H]1O [KANAMYCIN] | – | – | – | 1.3 µg/mL (≈ 2.68 µM) | – | – | – | – | – | –
20 | CN[C@H](CC(C)C)C(=O)N[C@H]1C(=O)N[C@@H](CC(N)=O)C(=O)N[C@H]2C(=O)N[C@H]3C(=O)N[C@H](C(=O)N[C@H](C(=O)O)c4cc(O)cc(O)c4-c4cc3ccc4O)[C@H](O)c3ccc(c(Cl)c3)Oc3cc2cc(c3O[C@@H]2O[C@H](CO)[C@@H](O)[C@H](O)[C@H]2O[C@H]2C[C@](C)(N)[C@H](O)[C@H](C)O2)Oc2ccc(cc2Cl)[C@H]1O [VANCOMYCIN] | > 40 µg/mL | 1.3 µg/mL (≈ 0.897 µM) | 0.6 µg/mL (≈ 0.414 µM) | – | – | – | – | – | – | –
